# Read-outs that look alike come from different tables or passages of the source.
# Experiments:
# HepG2 cells = test: IC20-72 hours value used as exposure dose in HepG2 cells; format: cell-based, human
# Protocol: All measurements were performed in triplicate.
# [1] = tested on: microRNA 1262, microRNA 98 and microRNA 30c-1
# bacteria = conditions: cited from earlier work
# [2] = GTX/NGTX class as in Tables 3-7; cited from earlier work
# [3] = Homo sapiens, HepG2 cells, IC20-72 hours, read-out: Dose (IC20-72 hours value)
# [4] = HepG2 cells exposed at Table 1 dose
# [5] = number of the three microRNAs predicting correctly
# [6] = correct predictions of three independent experiments
# [7] = HepG2 cells, IC20-72 hours, read-out: Dose (IC20-72 hours value)
compound,measurement,setting,value
"Clc1cc2c(cc1Cl)Oc1cc(Cl)c(Cl)cc1O2 [2,3,7,8-tetrachloro dibenzo-p-dioxin]",IC20,HepG2 cells; [3],0.01 µM
same,"Score / correctness of miRNA prediction, 1262 (number of correct predictions of three independent experiments)",hsa-miR-1262; [4],(3/3)
same,"Score / correctness of miRNA prediction, 98 (number of correct predictions of three independent experiments)",hsa-miR-98; [4],(3/3)
same,"Score / correctness of miRNA prediction, 30c-1 (number of correct predictions of three independent experiments)",hsa-miR-30c-1*; [4],(2/3)
same,"Aggregate result, correct",[1]; [5],3/3
same,"correctness of microRNA prediction, 885-3p",hsa-miR-885-3p; [6],(3/3)
same,"correctness of microRNA prediction, 888*",hsa-miR-888*; [6],(1/3)
same,"correctness of microRNA prediction, 1229",hsa-miR-1229; [6],(2/3)
same,"correctness of microRNA prediction, 891b",hsa-miR-891b; [6],(2/3)
same,"correctness of microRNA prediction, 302b",hsa-miR-302b; [6],(2/3)
same,"correctness of microRNA prediction, 1246",hsa-miR-1246; [6],(3/3)
same,"correctness of microRNA prediction, 502-3p",hsa-miR-502-3p; [6],(2/3)
same,Ames test result,bacteria,−
same,GTX in vivo,[2],NGTX
Oc1cccc2cccnc12 [8-quinolinol],IC20,"HepG2 cells; Homo sapiens, HepG2, read-out: Dose (IC20-72 hours value)",15 µM
same,"Prediction, miRNA 98",hsa-miR-98,NGTX (key: GTX: hsa-miR-98: Prediction if Expression is above Reference value; NGTX: hsa-miR-98: Prediction if Expression is below Reference value)
same,"Score / correctness of miRNA prediction, 98 (number of correct predictions of three independent experiments)",hsa-miR-98; human,(3/3)
same,"Prediction, miRNA 30c-1",hsa-miR-30c-1*,GTX (key: GTX: hsa-miR-30c-1*: Prediction if Expression is above Reference value; NGTX: hsa-miR-30c-1*: Prediction if Expression is below Reference value)
same,"Score / correctness of miRNA prediction, 30c-1 (number of correct predictions of three independent experiments)",hsa-miR-30c-1*; human,(1/3)
same,"Aggregate result, result",[1],NGTX
same,"Aggregate result, correct",[1]; human,2/3
same,"correctness of microRNA prediction, 885-3p",hsa-miR-885-3p; human,(1/3)
same,"correctness of microRNA prediction, 888*",hsa-miR-888*; human,(3/3)
same,"correctness of microRNA prediction, 1229",hsa-miR-1229; human,(3/3)
same,"correctness of microRNA prediction, 891b",hsa-miR-891b; human,(3/3)
same,"correctness of microRNA prediction, 302b",hsa-miR-302b; human,(1/3)
same,"correctness of microRNA prediction, 1246",hsa-miR-1246; human,(0/3)
same,"correctness of microRNA prediction, 502-3p",hsa-miR-502-3p; human,(2/3)
same,Ames test result,bacteria,+
"C[C@]12CC[C@@H]3c4ccc(O)cc4CC[C@H]3[C@@H]1CC[C@@H]2O [17beta-estradiol, 17 beta-estradiol]",IC20,HepG2 cells; [7],30 µM
same,"Aggregate result, correct",[1]; [5],3/3
same,GTX in vivo,[2],NGTX
CC1(C)S[C@@H]2[C@H](NC(=O)[C@H](N)c3ccccc3)C(=O)N2[C@H]1C(=O)O [Ampicillin trihydrate],IC20,HepG2 cells; [3],250 µM
same,"Score / correctness of miRNA prediction, 1262 (number of correct predictions of three independent experiments)",hsa-miR-1262; [4],(2/3)
same,"Score / correctness of miRNA prediction, 98 (number of correct predictions of three independent experiments)",hsa-miR-98; [4],(3/3)
same,"Score / correctness of miRNA prediction, 30c-1 (number of correct predictions of three independent experiments)",hsa-miR-30c-1*; [4],(3/3)
same,"Aggregate result, correct",[1]; [5],3/3
same,"correctness of microRNA prediction, 885-3p",hsa-miR-885-3p; [6],(3/3)
same,"correctness of microRNA prediction, 888*",hsa-miR-888*; [6],(3/3)
same,"correctness of microRNA prediction, 1229",hsa-miR-1229; [6],(3/3)
same,"correctness of microRNA prediction, 891b",hsa-miR-891b; [6],(2/3)
same,"correctness of microRNA prediction, 302b",hsa-miR-302b; [6],(2/3)
same,"correctness of microRNA prediction, 1246",hsa-miR-1246; [6],(1/3)
same,"correctness of microRNA prediction, 502-3p",hsa-miR-502-3p; [6],(3/3)
c1ccc2c(c1)cc1ccc3cccc4ccc2c1c34 [Benzo[a]pyere],IC20,HepG2 cells; [7],2 µM
same,"Score / correctness of miRNA prediction, 1262 (number of correct predictions of three independent experiments)",hsa-miR-1262; [4],(2/3)
same,"Score / correctness of miRNA prediction, 98 (number of correct predictions of three independent experiments)",hsa-miR-98; [4],(2/3)
same,"Score / correctness of miRNA prediction, 30c-1 (number of correct predictions of three independent experiments)",hsa-miR-30c-1*; [4],(2/3)
same,"Aggregate result, correct",[1]; [5],3/3
same,"correctness of microRNA prediction, 885-3p",hsa-miR-885-3p; [6],(2/3)
same,"correctness of microRNA prediction, 888*",hsa-miR-888*; [6],(2/3)
same,"correctness of microRNA prediction, 1229",hsa-miR-1229; [6],(3/3)
same,"correctness of microRNA prediction, 891b",hsa-miR-891b; [6],(3/3)
same,"correctness of microRNA prediction, 302b",hsa-miR-302b; [6],(2/3)
same,"correctness of microRNA prediction, 1246",hsa-miR-1246; [6],(3/3)
same,"correctness of microRNA prediction, 502-3p",hsa-miR-502-3p; [6],(2/3)
N.N.[Cl][Pt][Cl] [Cisplatin],IC20,HepG2 cells; [7],7 µM
same,"Aggregate result, correct",[1]; [5],3/3
same,GTX in vivo,[2],GTX
O=c1c(O)c(-c2ccc(O)c(O)c2)oc2cc(O)cc(O)c12 [Quercetin],IC20,HepG2 cells; [3],50 µM
same,"Score / correctness of miRNA prediction, 1262 (number of correct predictions of three independent experiments)",hsa-miR-1262; [4],(3/3)
same,"Score / correctness of miRNA prediction, 98 (number of correct predictions of three independent experiments)",hsa-miR-98; [4],(1/3)
same,"Score / correctness of miRNA prediction, 30c-1 (number of correct predictions of three independent experiments)",hsa-miR-30c-1*; [4],(3/3)
same,"Aggregate result, correct",[1]; [5],2/3
same,"correctness of microRNA prediction, 885-3p",hsa-miR-885-3p; [6],(1/3)
same,"correctness of microRNA prediction, 888*",hsa-miR-888*; [6],(1/3)
same,"correctness of microRNA prediction, 1229",hsa-miR-1229; [6],(1/3)
same,"correctness of microRNA prediction, 891b",hsa-miR-891b; [6],(2/3)
same,"correctness of microRNA prediction, 302b",hsa-miR-302b; [6],(1/3)
same,"correctness of microRNA prediction, 1246",hsa-miR-1246; [6],(2/3)
same,"correctness of microRNA prediction, 502-3p",hsa-miR-502-3p; [6],(1/3)
same,GTX in vivo,[2],NGTX
Aflatoxin B1,IC20,HepG2 cells; read-out: Dose (IC20-72 hours value),1 µM
same,"Score / correctness of miRNA prediction, 1262 (number of correct predictions of three independent experiments)",hsa-miR-1262,(2/3)
same,"Score / correctness of miRNA prediction, 98 (number of correct predictions of three independent experiments)",hsa-miR-98,(2/3)
same,"Score / correctness of miRNA prediction, 30c-1 (number of correct predictions of three independent experiments)",hsa-miR-30c-1*,(2/3)
same,"Aggregate result, correct",[1],3/3
same,"correctness of microRNA prediction, 885-3p",hsa-miR-885-3p,(1/3)
same,"correctness of microRNA prediction, 888*",hsa-miR-888*,(3/3)
same,"correctness of microRNA prediction, 1229",hsa-miR-1229,(1/3)
same,"correctness of microRNA prediction, 891b",hsa-miR-891b,(2/3)
same,"correctness of microRNA prediction, 302b",hsa-miR-302b,(2/3)
same,"correctness of microRNA prediction, 1246",hsa-miR-1246,(1/3)
same,"correctness of microRNA prediction, 502-3p",hsa-miR-502-3p,(2/3)

# — patent US20130244896A1, “IN VITRO METHOD FOR PREDICTING WHETHER A COMPOUND IS GENOTOXIC IN VIVO” (priority 2012, published 2013)
